Laboratory results: ChEMBL document CHEMBL5143584, “A dual aurora and lim kinase inhibitor reduces glioblastoma proliferation and invasion” (Bioorg Med Chem Lett, 2022)
Active and inactive are the calls of the source. The calls are words filed in the database; no cut-off is given here.

Key:
GBM [1] = test: Antiproliferative activity against fluorescently labelled human GBM cells are co-cultured with mature brain organoids differentiated from iPSCs assessed as reduction in total number of GBM cells incubated for 10 days by fluorescent confocal microscopy; format: functional, cell-based; details: time 10.0 day
[2] = Toxicity in human mature brain organoids differentiated from iPSCs assessed as decrease in organoid volume and surface area incubated for 10 days; format: cell-based; details: 240 h, time 10 day
LIM domain kinase 1 = LIM domain kinase 1 (Homo sapiens, UniProt P53667); test: Inhibition of LIMK1 (unknown origin)
LIM domain kinase 1, sequence (P53667 whole entry, the tested form may be a part): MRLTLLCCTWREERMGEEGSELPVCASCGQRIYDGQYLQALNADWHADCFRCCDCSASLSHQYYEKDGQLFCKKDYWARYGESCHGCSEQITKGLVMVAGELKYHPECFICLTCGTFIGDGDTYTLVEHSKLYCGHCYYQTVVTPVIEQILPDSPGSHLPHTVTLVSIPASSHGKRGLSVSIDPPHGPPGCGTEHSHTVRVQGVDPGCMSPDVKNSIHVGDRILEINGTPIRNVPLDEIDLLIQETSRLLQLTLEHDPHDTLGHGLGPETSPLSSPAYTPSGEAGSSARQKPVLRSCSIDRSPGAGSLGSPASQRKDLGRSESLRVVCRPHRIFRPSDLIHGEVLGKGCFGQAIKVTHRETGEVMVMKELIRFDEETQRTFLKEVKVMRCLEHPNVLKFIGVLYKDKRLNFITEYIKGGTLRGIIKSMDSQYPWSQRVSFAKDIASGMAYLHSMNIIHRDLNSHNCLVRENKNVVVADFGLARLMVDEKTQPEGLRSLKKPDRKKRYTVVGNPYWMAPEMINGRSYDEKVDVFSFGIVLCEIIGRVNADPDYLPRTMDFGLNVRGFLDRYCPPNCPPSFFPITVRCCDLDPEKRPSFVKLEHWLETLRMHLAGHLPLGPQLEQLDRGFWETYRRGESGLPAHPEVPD

Aurora kinase A = target: T1, Aurora kinase A (Homo sapiens, UniProt O14965); test: Inhibition of AURKA (unknown origin)
T1 sequence (O14965 whole entry): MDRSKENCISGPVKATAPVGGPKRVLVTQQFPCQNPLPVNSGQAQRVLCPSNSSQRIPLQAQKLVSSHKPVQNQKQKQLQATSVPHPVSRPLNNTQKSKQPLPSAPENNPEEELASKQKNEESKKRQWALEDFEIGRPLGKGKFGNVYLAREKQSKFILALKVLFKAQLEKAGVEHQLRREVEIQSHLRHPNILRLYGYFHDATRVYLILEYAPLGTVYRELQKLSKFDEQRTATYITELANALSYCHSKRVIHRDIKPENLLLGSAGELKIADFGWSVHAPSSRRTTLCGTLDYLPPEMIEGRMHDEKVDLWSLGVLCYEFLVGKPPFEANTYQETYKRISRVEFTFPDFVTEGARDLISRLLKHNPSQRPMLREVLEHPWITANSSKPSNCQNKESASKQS

GBM [3] = test: Anti-invasion activity against fluorescently labelled human GBM cells are co-cultured with mature brain organoids differentiated from iPSCs assessed as reduction in number of invading GBM cells at 500 nM incubated for 10 days by fluorescent confocal microscopy; format: functional, cell-based; details: time 10.0 day
GBM [4] = test: Antiproliferative activity against fluorescently labelled human GBM cells are co-cultured with mature brain organoids differentiated from iPSCs assessed as reduction in total number of GBM cells by FACS; format: functional, cell-based
[5] = Toxicity in human mature brain organoids differentiated from iPSCs assessed as decrease in organoid volume and surface area at 500 nM incubated for 10 days; format: cell-based; details: 240 h, 0.5 µM, time 10 day
[6] = Antiproliferative activity against human GBM22 cells assessed as inhibition of cell proliferation incubated for 48 hrs by live/dead fluorescence imaging-based assay; format: functional; details: GBM
[7] = Antiproliferative activity against human GBM22 cells assessed as inhibition of cell proliferation incubated for 24 hrs by live/dead fluorescence imaging-based assay; format: functional; details: GBM
[8] = Antiproliferative activity against human GBM22 cells assessed as inhibition of cell proliferation by CellTiter-Glo ATP content assay; format: functional, cell-based; details: GBM
GBM [9] = test: Antiproliferative activity against fluorescently labelled human GBM cells are co-cultured with mature brain organoids differentiated from iPSCs assessed as reduction in total number of GBM cells at 500 nM incubated for 10 days by fluorescent confocal microscopy; format: functional, cell-based; details: time 10.0 day
Aurora kinase B = Aurora kinase B (Homo sapiens, UniProt Q96GD4); test: Inhibition of AURKB (unknown origin)
Aurora kinase B, sequence (Q96GD4 whole entry): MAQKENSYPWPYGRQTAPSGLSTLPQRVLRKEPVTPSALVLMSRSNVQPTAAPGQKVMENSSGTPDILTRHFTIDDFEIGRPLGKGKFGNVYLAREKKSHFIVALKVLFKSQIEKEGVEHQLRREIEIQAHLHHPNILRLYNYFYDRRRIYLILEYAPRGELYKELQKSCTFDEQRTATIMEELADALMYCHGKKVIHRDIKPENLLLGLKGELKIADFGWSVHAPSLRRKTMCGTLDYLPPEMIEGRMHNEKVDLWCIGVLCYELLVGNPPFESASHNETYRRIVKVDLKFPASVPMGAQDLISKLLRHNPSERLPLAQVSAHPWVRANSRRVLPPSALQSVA

GBM [10] = test: Anti-invasion activity against fluorescently labelled human GBM cells are co-cultured with mature brain organoids differentiated from iPSCs assessed as reduction in number of invading GBM cells incubated for 10 days by fluorescent confocal microscopy; format: functional, cell-based; details: time 10.0 day

For `Cc1csc(-c2nnc(Nc3ccc(Oc4ncccc4-c4ccnc(N)n4)cc3)c3ccccc23)c1` [AMG-900], the Activity (GBM [1]) was “Active” and the Activity [2] was “Non-Toxic”.

With `CC(C)n1cc(Nc2ncc3ccc(=O)n(C(C)C)c3n2)cn1` the IC50 (LIM domain kinase 1) was 137 nM, the IC50 (Aurora kinase A) was 72 nM and the Activity (GBM [3]) was “Active”. For the same compound, the Activity (GBM [4]) was “Active”, the Activity [5] was “Toxic” and the IC50 [6] was 1530 nM. For the same compound, the IC50 [7] was 2460 nM, the IC50 [8] was 5340 nM and the Activity (GBM [9]) was “Active”. The IC50 (Aurora kinase B) was 17 nM.

For `CC(C)C(=O)Nc1ncc(-c2cc(C(F)F)nn2-c2c(Cl)cccc2Cl)s1`, the Activity (GBM [1]) was “Active”, the Activity [2] was “Non-Toxic” and the Activity (GBM [10]) was “Active”.
